Test results: patent US20190302100A1, “METHOD FOR PREPARING LIVER PROGENITOR CELLS” (National Cancer Center, priority 2016, published 2019)

Assays:
[1] = test system: CYP1A2; assay: Activity of metabolic enzyme CYP1A2 (Luciferin 1A2 kit) in hepatocytes taken out from transplanted cDNA-uPA/SCID mice; assay type: cell-based, human
Excerpt: After that, cDNA-uPA/SCID mice (2 to 4 M, Male; manufactured by PhoenixBio Co., Inc.) were subjected to laparotomy under isoflurane anesthesia, the spleen was exposed, 0.5×10^5 to 2×10^6 liver progenitor cells per mouse were implanted, and then the abdomen was sutured. On day 73 after implantation, the liver was removed and perfused. Hepatocytes were separated, and cultured for 4 days on 24-well collagen plates (manufactured by IWAKI) at 4×10^5 cells/well using 2% FBS-SHM medium.
(§1) For the hepatocytes taken out from the mice, the activity of the metabolic enzyme CYP1A2 was measured using methanol (MeOH, at a concentration of 1%) and omeprazole (OMP, 50 μM). […] The activities of these metabolic enzymes were measured with Luciferin 1A2 kit and Luciferin-IPA kit from Promega, respectively.

[2] = test system: CYP3A4
Protocol: On day 73 after implantation, the liver was removed and perfused. Hepatocytes were separated, and cultured for 4 days on 24-well collagen plates (manufactured by IWAKI) at 4×10^5 cells/well using 2% FBS-SHM medium.
as §1

Compound | CYP1A2 induction ([1]; Example 14: cells from donor 10 M, omeprazole 50 μM vs methanol 1%) | CYP1A2 induction ([1]; Example 15: cells from donor 8 M, as in Example 14) | CYP3A4 induction [2]
COc1ccc2[nH]c([S+]([O-])Cc3ncc(C)c(OC)c3C)nc2c1 (stereo not drawn) [omeprazole] | induced | induced | –
CCC1(c2ccccc2)C(=O)NC(=O)NC1=O [phenobarbital] | – | – | induced
